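These data come from cells grown in 96-well plates and exposed to compound for 48 hours at five concentrations. TGI denotes the concentration required for complete inhibition of growth.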
Assays:
Experiment in all cases: inhibition of tumour cell growth, NCI panel, 48 h
HCC-2998 colon = system: HCC-2998 colon
OVCAR-5 ovarian = system: OVCAR-5 ovarian
EKVX NSCLC = system: EKVX NSCLC
OVCAR-4 ovarian = system: OVCAR-4 ovarian
SR leukemia = system: SR leukemia
ACHN renal = system: ACHN renal
K-562 leukemia = system: K-562 leukemia
DMS 273 small cell lung = system: DMS 273 small cell lung
OVCAR-8 ovarian = system: OVCAR-8 ovarian
NCI-H226 lung = system: NCI-H226 lung
HOP-62 NSCLC = system: HOP-62 NSCLC
SF-295 CNS = system: SF-295 CNS
UO-31 renal = system: UO-31 renal
786-0 renal = system: 786-0 renal
SW-620 colon = system: SW-620 colon
HCT-15 colon = system: HCT-15 colon
M19-MEL melanoma = system: M19-MEL melanoma
HL-60(TB) leukemia = system: HL-60(TB) leukemia
OVCAR-3 ovarian = system: OVCAR-3 ovarian
DLD-1 colon = system: DLD-1 colon
TK-10 renal = system: TK-10 renal
LOX IMVI melanoma = system: LOX IMVI melanoma
RXF-631 renal = system: RXF-631 renal
KM12 colon = system: KM12 colon
MALME-3M melanoma = system: MALME-3M melanoma
SNB-78 CNS = system: SNB-78 CNS
SK-MEL-28 melanoma = system: SK-MEL-28 melanoma
LXFL 529 NSCLC = system: LXFL 529 NSCLC
M14 melanoma = system: M14 melanoma
RXF 393 renal = system: RXF 393 renal
MOLT-4 leukemia = system: MOLT-4 leukemia
CAKI-1 renal = system: CAKI-1 renal
SNB-19 CNS = system: SNB-19 CNS
HCT-116 colon = system: HCT-116 colon
SK-MEL-2 melanoma = system: SK-MEL-2 melanoma
SF-539 CNS = system: SF-539 CNS
SK-OV-3 ovarian = system: SK-OV-3 ovarian
RPMI-8226 leukemia = system: RPMI-8226 leukemia
NCI-H522 lung = system: NCI-H522 lung
SF-268 CNS = system: SF-268 CNS
KM20L2 colon = system: KM20L2 colon
SN12C renal = system: SN12C renal
CCRF-CEM leukemia = system: CCRF-CEM leukemia
SK-MEL-5 melanoma = system: SK-MEL-5 melanoma
COLO 205 colon = system: COLO 205 colon
UACC-62 melanoma = system: UACC-62 melanoma
A549 NSCLC = system: A549 NSCLC
NCI-H460 lung = system: NCI-H460 lung
IGROV1 ovarian = system: IGROV1 ovarian
U251 CNS = system: U251 CNS
NCI-H23 lung = system: NCI-H23 lung
SNB-75 CNS = system: SNB-75 CNS
UACC-257 melanoma = system: UACC-257 melanoma
A498 renal = system: A498 renal
HT29 colon = system: HT29 colon
HOP-92 NSCLC = system: HOP-92 NSCLC
DMS 114 small cell lung = system: DMS 114 small cell lung
HOP-18 NSCLC = system: HOP-18 NSCLC

Measured: TGI

O=C(O)C(Cc1ccccc1)N=Cc1nc(-c2ccccc2)oc1O (centres undefined)
not listed: HOP-92 NSCLC | DMS 114 small cell lung | HOP-18 NSCLC
> 100 µM: all other assays above

[N-]=[N+]=C1C(=O)C2CC3CC1CC2C3 (centres undefined)
> 100 µM: all assays above

CC(=O)OC1CC2C(C)(C)C(=O)C=C[C@]2(C)C2CCC3(C)C(c4ccoc4)C(=O)C4OC43[C@]12C (some centres undefined)
80.7 µM: SNB-19 CNS
32.5 µM: M19-MEL melanoma
26 µM: HCT-116 colon
50.8 µM: MOLT-4 leukemia
39.5 µM: M14 melanoma
32.1 µM: KM20L2 colon | HT29 colon
32.6 µM: K-562 leukemia
58.9 µM: OVCAR-4 ovarian
39.4 µM: SR leukemia
33.3 µM: DMS 114 small cell lung | NCI-H460 lung
43.6 µM: SK-OV-3 ovarian
25.9 µM: LOX IMVI melanoma
34.4 µM: OVCAR-3 ovarian
26.9 µM: NCI-H522 lung
32 µM: SK-MEL-28 melanoma
37.6 µM: UO-31 renal
85 µM: ACHN renal
34.3 µM: UACC-62 melanoma
64.4 µM: OVCAR-8 ovarian
38.1 µM: HOP-92 NSCLC
30.7 µM: HCC-2998 colon | SN12C renal
60.9 µM: OVCAR-5 ovarian
37.7 µM: SF-295 CNS
30 µM: SK-MEL-5 melanoma
42.5 µM: A498 renal
34.2 µM: COLO 205 colon
57.9 µM: HOP-62 NSCLC
41.6 µM: U251 CNS
32.7 µM: NCI-H226 lung
40.2 µM: SF-539 CNS
42 µM: SW-620 colon
31.9 µM: SK-MEL-2 melanoma
40.3 µM: MALME-3M melanoma
29.9 µM: HCT-15 colon | HL-60(TB) leukemia
75.6 µM: DMS 273 small cell lung
47.5 µM: IGROV1 ovarian
35.1 µM: UACC-257 melanoma
34 µM: DLD-1 colon
69.3 µM: 786-0 renal
46 µM: A549 NSCLC
58.3 µM: CCRF-CEM leukemia
31.2 µM: NCI-H23 lung
75.3 µM: SNB-75 CNS
29.3 µM: KM12 colon
53.9 µM: SF-268 CNS
22.5 µM: RPMI-8226 leukemia
not listed: RXF-631 renal | RXF 393 renal
> 100 µM: all other assays above

Reference: PubChem BioAssay (NCI)
